Values after ≈ are worked out from the molar mass of the structure shown.
Experiments:
Bacillus = assay: Antibacterial activity against Bacillus proteus ATCC 13315 after 24 hrs by micro broth dilution method; assay type: functional; conditions: ATCC 13315, 24 h
Shigella dysenteriae = assay: Antibacterial activity against Shigella dysenteriae after 24 hrs by micro broth dilution method; assay type: functional
Cyberlindnera jadinii = assay: Antifungal activity against Candida utilis after 24 hrs by two fold serial dilution based spectrophotometric analysis; assay type: functional; conditions: Williopsis jadinii
Bacillus subtilis = assay: Antibacterial activity against Bacillus subtilis after 24 hrs by micro broth dilution method; assay type: functional
Salmonella typhi = assay: Antibacterial activity against Bacillus typhi after 24 hrs by micro broth dilution method; assay type: functional, Salmonella enterica subsp. enterica serovar Typhi; conditions: Salmonella enterica
Escherichia coli [1] = assay: Antibacterial activity against Escherichia coli DH52 after 24 hrs by micro broth dilution method; assay type: functional; conditions: DH52, 24 h
Candida albicans = assay: Antifungal activity against Candida albicans after 24 hrs by two fold serial dilution based spectrophotometric analysis; assay type: functional
Micrococcus luteus = assay: Antibacterial activity against Micrococcus luteus ATCC 4698 after 24 hrs by micro broth dilution method; assay type: functional; conditions: NCTC 2665, 24 h
Staphylococcus aureus [2] = assay: Antibacterial activity against Staphylococcus aureus ATCC 25923 after 24 hrs by micro broth dilution method; assay type: functional; conditions: ATCC 25923, 24 h
Pichia norvegensis = assay: Antifungal activity against Candida mycoderma after 24 hrs by two fold serial dilution based spectrophotometric analysis; assay type: functional
Aspergillus flavus = assay: Antifungal activity against Aspergillus flavus after 24 hrs by two fold serial dilution based spectrophotometric analysis; assay type: functional
Pseudomonas aeruginosa = assay: Antibacterial activity against Pseudomonas aeruginosa after 24 hrs by micro broth dilution method; assay type: functional
Staphylococcus aureus [3] = assay: Antibacterial activity against methicillin-resistant Staphylococcus aureus N315 after 24 hrs by micro broth dilution method; assay type: functional; conditions: N315, 24 h
Saccharomyces cerevisiae = assay: Antifungal activity against Beer yeast after 24 hrs by two fold serial dilution based spectrophotometric analysis; assay type: functional
Escherichia coli [4] = assay: Antibacterial activity against Escherichia coli JM109 after 24 hrs by micro broth dilution method; assay type: functional; conditions: JM109, 24 h

Row | SMILES | MIC (Bacillus) [µg/mL] | MIC (Shigella dysenteriae) [µg/mL] | MIC (Cyberlindnera jadinii) [µg/mL] | MIC (Bacillus subtilis) [µg/mL] | MIC (Salmonella typhi) [µg/mL] | MIC (Escherichia coli [1]) [µg/mL] | MIC (Candida albicans) [µg/mL] | MIC (Micrococcus luteus) [µg/mL] | MIC (Staphylococcus aureus [2]) [µg/mL] | MIC (Pichia norvegensis) [µg/mL] | MIC (Aspergillus flavus) [µg/mL] | MIC (Pseudomonas aeruginosa) [µg/mL] | MIC (Staphylococcus aureus [3]) [µg/mL] | MIC (Saccharomyces cerevisiae) [µg/mL] | MIC (Escherichia coli [4]) [µg/mL]
1 | BrCCCCCCCCCCOCc1c(-c2ccccc2)nc2sc3ccccc3n12 | 16 (≈ 32 µM) | 64 (≈ 128 µM) | 64 (≈ 128 µM) | 8 (≈ 16 µM) | 128 (≈ 256 µM) | 16 (≈ 32 µM) | 4 (≈ 8.01 µM) | 32 (≈ 64.1 µM) | 32 (≈ 64.1 µM) | 64 (≈ 128 µM) | 16 (≈ 32 µM) | 16 (≈ 32 µM) | 64 (≈ 128 µM) | 64 (≈ 128 µM) | 128 (≈ 256 µM)
2 | c1ccc(-c2nc3sc4ccccc4n3c2COCCCCCn2cncn2)cc1 | 32 (≈ 76.6 µM) | 8 (≈ 19.2 µM) | 64 (≈ 153 µM) | 32 (≈ 76.6 µM) | 32 (≈ 76.6 µM) | 32 (≈ 76.6 µM) | 4 (≈ 9.58 µM) | 256 (≈ 613 µM) | 16 (≈ 38.3 µM) | 8 (≈ 19.2 µM) | 16 (≈ 38.3 µM) | 32 (≈ 76.6 µM) | 16 (≈ 38.3 µM) | 8 (≈ 19.2 µM) | 16 (≈ 38.3 µM)
3 | O=[N+]([O-])c1cn(CCCCCCCCCCOCc2c(-c3ccccc3)nc3sc4ccccc4n23)cn1 | 32 (≈ 60.2 µM) | 16 (≈ 30.1 µM) | 256 (≈ 481 µM) | 64 (≈ 120 µM) | 64 (≈ 120 µM) | 16 (≈ 30.1 µM) | 64 (≈ 120 µM) | 128 (≈ 241 µM) | 32 (≈ 60.2 µM) | 64 (≈ 120 µM) | 128 (≈ 241 µM) | 64 (≈ 120 µM) | 16 (≈ 30.1 µM) | 8 (≈ 15 µM) | 64 (≈ 120 µM)
4 | CCOc1ccc2c(c1)sc1nc(-c3ccccc3)c(COCCCCCCCCCCBr)n12 | > 512 | > 512 | > 512 | > 512 | 256 (≈ 471 µM) | > 512 | > 512 | > 512 | > 512 | > 512 | 512 (≈ 942 µM) | 16 (≈ 29.4 µM) | > 512 | > 512 | > 512
5 | CCOc1ccc2c(c1)sc1nc(-c3ccccc3)c(COCCCCCn3cnc([N+](=O)[O-])c3)n12 | 512 (≈ 1010 µM) | 16 (≈ 31.6 µM) | 128 (≈ 253 µM) | 256 (≈ 506 µM) | 256 (≈ 506 µM) | 128 (≈ 253 µM) | 128 (≈ 253 µM) | 512 (≈ 1010 µM) | 128 (≈ 253 µM) | 256 (≈ 506 µM) | 256 (≈ 506 µM) | 512 (≈ 1010 µM) | > 512 | 128 (≈ 253 µM) | > 512
6 | CCOc1ccc2c(c1)sc1nc(-c3ccccc3)c(COCCCCCCCCCCn3c([N+](=O)[O-])cnc3C)n12 | 256 (≈ 434 µM) | 16 (≈ 27.1 µM) | 256 (≈ 434 µM) | 32 (≈ 54.3 µM) | 256 (≈ 434 µM) | 256 (≈ 434 µM) | 128 (≈ 217 µM) | 512 (≈ 868 µM) | 128 (≈ 217 µM) | 256 (≈ 434 µM) | 512 (≈ 868 µM) | 128 (≈ 217 µM) | 128 (≈ 217 µM) | 64 (≈ 109 µM) | 512 (≈ 868 µM)
7 | O=[N+]([O-])c1cn(CCCCCOCc2c(-c3ccccc3)nc3sc4ccccc4n23)cn1 | 64 (≈ 139 µM) | 128 (≈ 277 µM) | > 512 | 128 (≈ 277 µM) | 128 (≈ 277 µM) | 128 (≈ 277 µM) | 16 (≈ 34.7 µM) | 256 (≈ 555 µM) | 32 (≈ 69.3 µM) | 16 (≈ 34.7 µM) | 64 (≈ 139 µM) | 512 (≈ 1110 µM) | 8 (≈ 17.3 µM) | 32 (≈ 69.3 µM) | 128 (≈ 277 µM)
8 | CCOc1ccc2c(c1)sc1nc(-c3ccccc3)c(COCCCCCn3cncn3)n12 | > 512 | 256 (≈ 555 µM) | 256 (≈ 555 µM) | > 512 | > 512 | > 512 | > 512 | > 512 | > 512 | 256 (≈ 555 µM) | > 512 | > 512 | > 512 | > 512 | 128 (≈ 277 µM)
9 | OC(Cn1cncn1)(Cn1cncn1)c1ccc(F)cc1F [FLUCONAZOLE] |  |  | 8 (≈ 26.1 µM) |  |  |  | 1 (≈ 3.27 µM) |  |  | 4 (≈ 13.1 µM) | 256 (≈ 836 µM) |  |  | 16 (≈ 52.2 µM) | 
10 | BrCCCCCOCc1c(-c2ccccc2)nc2sc3ccccc3n12 | 16 (≈ 37.3 µM) | 16 (≈ 37.3 µM) | 64 (≈ 149 µM) | 4 (≈ 9.32 µM) | 128 (≈ 298 µM) | 16 (≈ 37.3 µM) | 4 (≈ 9.32 µM) | 256 (≈ 596 µM) | 32 (≈ 74.5 µM) | 64 (≈ 149 µM) | 16 (≈ 37.3 µM) | 16 (≈ 37.3 µM) | 16 (≈ 37.3 µM) | 16 (≈ 37.3 µM) | 16 (≈ 37.3 µM)
11 | CCOc1ccc2c(c1)sc1nc(-c3ccccc3)c(COCCCCCBr)n12 | 128 (≈ 270 µM) | 128 (≈ 270 µM) | > 512 | 128 (≈ 270 µM) | > 512 | 128 (≈ 270 µM) | 16 (≈ 33.8 µM) | > 512 | > 512 | 128 (≈ 270 µM) | 64 (≈ 135 µM) | > 512 | > 512 | > 512 | > 512
12 | CCn1cc(C(=O)O)c(=O)c2cc(F)c(N3CCNCC3)cc21 [NORFLOXACIN] | 8 (≈ 25.1 µM) | 16 (≈ 50.1 µM) |  | 4 (≈ 12.5 µM) | 4 (≈ 12.5 µM) | 1 (≈ 3.13 µM) |  | 2 (≈ 6.26 µM) | 2 (≈ 6.26 µM) |  |  | 16 (≈ 50.1 µM) | 8 (≈ 25.1 µM) |  | 1 (≈ 3.13 µM)
13 | CCOc1ccc2c(c1)sc1nc(-c3ccccc3)c(COCCCn3cnc([N+](=O)[O-])c3)n12 | 512 (≈ 1070 µM) | 256 (≈ 536 µM) | 128 (≈ 268 µM) | 256 (≈ 536 µM) | 256 (≈ 536 µM) | 512 (≈ 1070 µM) | 16 (≈ 33.5 µM) | 256 (≈ 536 µM) | 128 (≈ 268 µM) | 32 (≈ 67 µM) | 32 (≈ 67 µM) | 512 (≈ 1070 µM) | 512 (≈ 1070 µM) | > 512 | 256 (≈ 536 µM)
14 | CCOc1ccc2c(c1)sc1nc(-c3ccccc3)c(COCCCBr)n12 | > 512 | > 512 | > 512 | > 512 | 8 (≈ 18 µM) | > 512 | > 512 | > 512 | > 512 | > 512 | 512 (≈ 1150 µM) | 16 (≈ 35.9 µM) | > 512 | > 512 | > 512
15 | CCOc1ccc2c(c1)sc1nc(-c3ccccc3)c(COCCCCCn3c([N+](=O)[O-])cnc3C)n12 | > 512 |  | 256 (≈ 493 µM) | 512 (≈ 985 µM) |  | 512 (≈ 985 µM) | 32 (≈ 61.6 µM) | 256 (≈ 493 µM) | 128 (≈ 246 µM) | 128 (≈ 246 µM) | 128 (≈ 246 µM) | 512 (≈ 985 µM) |  | 128 (≈ 246 µM) | > 512
